Where a SMILES comes first, the peptide text is derived from it.
Assays:
[1] = Thioflavin T fluorescence assay; format: physicochemical; settings: 1.0 mg/mL in PBS pH 7.4, 37 °C, orbital shaking; ThT excitation 420 nm, emission 482 nm
Protocol: All peptides were dissolved in Eppendorf Low Retention Tubes in 1.0 mL of PBS pH 7.4. The concentration of the solutions of peptides was 1.0 mg/mL. The peptides were incubated at 37 °C with constant orbital shaking. Aliquots for the evaluation of the fibrillization process were taken before incubation and after 1, 2, 3, 6, 14, and 21 days or only after 7 days, depending on the experiments.
Ten microliters of peptide solution incubated under fibrillization conditions (see Fibril preparation) were mixed with 10 µL of 1.5 mM ThT in water and 90 µL of PBS pH 7.4. The fluorescence was measured on a Tecan Infinite 200Pro (Tecan Group Ltd., Männedorf, Switzerland) spectrofluorometer in 96-well plates (Costar Black®), with excitation wavelength set at 420 nm and emission in the range of 455 to 600 nm.

[2] = target: T1, human neutrophil elastase (Homo sapiens, UniProt P08246); experiment: Incubation with neutrophil elastase (release of active sequence); format: in vitro ADME; settings: non-fibrillated peptide 1.0 mM, 0.1 M Tris HCl, 500 mM NaCl, 0.05% Triton X-100, 20 mM CaCl2, pH 7.5; enzyme 150 nM; 30 min, 37 °C; RP-UHPLC (PDA) and LC-MS
T1 construct: purchased Sigma Aldrich
T1 sequence (P08246 30-267): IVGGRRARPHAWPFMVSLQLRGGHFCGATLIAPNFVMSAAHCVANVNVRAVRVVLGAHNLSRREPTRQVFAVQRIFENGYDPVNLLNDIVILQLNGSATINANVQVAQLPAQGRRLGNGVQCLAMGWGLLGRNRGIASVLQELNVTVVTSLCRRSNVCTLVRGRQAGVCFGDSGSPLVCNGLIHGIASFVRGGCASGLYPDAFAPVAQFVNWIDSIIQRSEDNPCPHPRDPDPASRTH
Protocol: An enzymatic stability study was performed using the human neutrophil elastase enzyme (Sigma Aldrich, St. Louis, MO, USA). The peptides were dissolved in a buffer (with composition: 0.1 M Tris HCl, 500 mM NaCl, 0.05% Triton X-100, 20 mM CaCl2, pH 7.5), to a final concentration 1.0 mM. The fibrils formed in the aggregation process were dissolved in PBS at pH 7.4 to a concentration of 1 mg/mL. The enzyme was added to the peptide/fibril solution to a concentration of 150 nM and incubated for 30 min (peptides) or 60 min (fibrils), at 37 °C, with agitation. A 10% aqueous TFA solution was added to the reaction mixture to stop the digestion. The progress of the reaction was monitored by RP-UHPLC with a PDA (Photo Diode Array) detector on a Kinetex C8 column (2.6 μm, 100 Å 2.6 × 100 mm, Phenomenex, Torrance, CA, USA), at a gradient of 0–50% B for 15 min, and by LC-MS.

[3] = system: 46BR.1N fibroblasts; experiment: XTT proliferation assay, fibroblasts; format: cell-based, human; settings: for increase in proliferation by fibrils compared to control (XTT): fibrillated form, 10 µL of fibrils (50 µg/mL), 48 h, three independent experiments; for stimulation of proliferation (XTT), in words / inhibition of proliferation (XTT), in words: non-fibrillated peptide, 48 and 72 h; for inhibition of proliferation (XTT), in words: up to 25 µg/mL
Protocol: (§1) Immortalized human HaCaT [69, 70] keratinocytes (DKFZ, Heidelberg, Germany) and the human dermal fibroblast cell line 46BR.1N (ECACC, Sigma Aldrich, St. Louis, MO, USA) were used in the study. Cells were routinely grown in culture flasks (growth surface area 25 cm^2) in Dulbecco’s modified Eagle medium (DMEM, Sigma Aldrich, St. Louis, MO, USA), with 4500 mg/L of glucose, 584 mg/L of L-glutamine, sodium pyruvate, and sodium bicarbonate, supplemented with 10% FBS and 100 units/mL of penicillin and 100 μg/mL of streptomycin (Sigma Aldrich, St. Louis, MO, USA), under a humidified atmosphere with 5% CO2 at 37 °C. Medium was changed every 2–3 days.
(§2) Lactate dehydrogenase (LDH) activity in cell culture supernatants (Takara, Japan, cat. No. MK401) was measured to determine the cytotoxicity of the tested compounds, and the XTT assay was used to evaluate their effect on cell proliferation. Both tests were performed as previously described according to manufacturers’ instructions. Briefly, cells were seeded into 96-well plates, at a density of 5000 cells per well, in DMEM supplemented with 10% FBS. After 24 h the medium was exchanged for serum-free DMEM containing appropriate concentrations of the tested compounds. Supernatants for LDH analysis were collected after 48 h of incubation. The XTT assay was performed after 48 and 72 h of incubation.
(§3) For the analysis of the effect of the peptide fibrils on skin cells, the experiment was performed as described, but the cells were stimulated with 10 µL of the fibrils (50 µg/mL) and incubated for 48 h, when the LDH and XTT assay were then performed.

[4] = system: 46BR.1N fibroblasts; experiment: Collagen synthesis analysis (Direct red 80); format: cell-based, human; settings: 25.0 µg/mL; 6 days; Direct red 80, 550 nm, percentage of control
Protocol: 46BR.1N fibroblasts were seeded into 96-well plates, at a density of 3000 cells per well, in DMEM medium supplemented with 10% FBS. After 24 h, when the cells had attached to the plate, the medium was exchanged for a fresh one, and the cells were stimulated with appropriate concentrations of the tested peptides. Half of the medium was exchanged every two days, with additional stimulation during every medium exchange, and the cells were cultured in the presence of the peptides for six days. The medium was then removed and the cells were washed with PBS, fixed for 1 h in Bouin’s fluid (15 mL of saturated picric acid, 5 mL of 37% formaldehyde and 1 mL of acetic acid), washed in running tap water for 15 min and air dried. The cells were stained for 1 h with Direct red 80 (Sigma Aldrich, St. Louis, MO, USA) dissolved in saturated aqueous picric acid solution at a concentration of 1 mg/mL, while gently shaking the plate on a microplate shaker. The dye was removed and the cells were washed with a 0.01 M hydrochloric acid solution to remove unbound dye. The cells were photographed with a light microscope. The dye was then dissolved in 0.1 M sodium hydroxide for 30 min by shaking the plate on a microplate shaker at room temperature. The solution was transferred to a new plate and a spectrophotometric analysis was performed at 550 nm, using 0.1 N sodium hydroxide as a blank. […]

[5] = system: HaCaT keratinocytes; experiment: XTT proliferation assay, keratinocytes; format: cell-based, human; settings: for increase in proliferation by fibrils compared to control (XTT): fibrillated form, 10 µL of fibrils (50 µg/mL), 48 h, not statistically significant; for stimulation of proliferation (XTT), in words / inhibition of proliferation (XTT), in words: non-fibrillated peptide, 48 and 72 h; for inhibition of proliferation (XTT), in words: up to 25 µg/mL
Protocol: as §1, §2, §3

| SMILES | time course of ThT fluorescence increase (fibrillization) [1] | Degradation Yes/No by human neutrophil elastase [2] | increase in proliferation by fibrils compared to control (XTT) [3] | stimulation of proliferation (XTT), in words [3] | inhibition of proliferation (XTT), in words [3] | increase in collagen synthesis [4] [%] | increase in proliferation by fibrils compared to control (XTT) [5] | stimulation of proliferation (XTT), in words [5] | inhibition of proliferation (XTT), in words [5] |
| --- | --- | --- | --- | --- | --- | --- | --- | --- | --- |
| CC[C@H](C)[C@H](NC(=O)CNC(=O)[C@H](C)NC(=O)[C@H](CCC(N)=O)NC(=O)CNC(=O)CNC(=O)CNC(=O)[C@@H](NC(=O)[C@@H]1CCCN1C(=O)[C@H](C)NC(=O)[C@H](C)NC(=O)CNC(=O)CNC(=O)CNC(=O)[C@H](CCCCN)NC(=O)[C@H](Cc1c[nH]cn1)NC(=O)CNC(C)=O)C(C)C)C(=O)N[C@H](C(=O)N[C@H](C(N)=O)C(C)C)C(C)C [FC-GHK] (Ac-GHKGGGAAPVGGGQAGIVV-NH2) | effective sample fibrilization during the first two days of incubation | Yes | about 10% | stimulated proliferation of both tested cell lines at concentrations of 0.01–10 µg/L | slight inhibition of the proliferation of skin cells after 72 h stimulation | 30 | about 10% | stimulated proliferation of both tested cell lines at concentrations of 0.01–10 µg/L | slight inhibition of the proliferation of skin cells after 72 h stimulation |
| CC[C@H](C)[C@H](NC(=O)CNC(=O)[C@H](C)NC(=O)[C@H](CCC(N)=O)NC(=O)CNC(=O)CNC(=O)CNC(=O)[C@@H](NC(=O)[C@@H]1CCCN1C(=O)[C@H](C)NC(=O)[C@H](C)NC(=O)CNC(=O)CNC(=O)CNC(=O)[C@H](CCCCN)NC(=O)[C@H](Cc1c[nH]cn1)NC(=O)CNC(=O)[C@H](CCCCN)NC(C)=O)C(C)C)C(=O)N[C@H](C(=O)N[C@H](C(N)=O)C(C)C)C(C)C [FC-KGHK] (Ac-KGHKGGGAAPVGGGQAGIVV-NH2) | required at least three days of incubation | Yes | ~20% | strongest stimulation was observed for 46BR.1N fibroblasts in concentrations of 0.1–10 µg/mL after 72 h of incubation | did not inhibit the proliferation of skin cells | 40 | about 10% | most potent stimulation was observed at concentrations of 1.0 µg/mL after 48 h and 0.1 µg/mL after 72 h incubation | did not inhibit the proliferation of skin cells |

Source: article PMC8067766 (International Journal of Molecular Sciences, 2021)
